Entries after “also recorded” stand apart in the source; their conditions may differ. One block for each compound: values may come before it. No end group written: not given here.
Assays:
[1] = tested on: B16F10-Nex2 melanoma cells; test: In vivo protection against lung colonization (metastatic melanoma model); set-up: species or system C57B1/6 mice; details: 250 μg i.p. on days 1, 3, 5, 7, 9, 11; lungs after 22 days
Procedure: Details of the in vitro tumor cell growth, cytotoxicity tests, determination of viable cells and in vivo protection experiments with B16F10 cells in a mouse metastatic model are described in Polonelli et al. (PLoS One. 3(6):e2371, 2008) and Dobroff et al. (Translat. Onc., 3: 204-217, 2010).
Peptides RB9 and RB10 along with the apoptotic peptide A4H3, a true microantibody of cytotoxic anti-melanoma mAb (A4) (Dobroff et al., Translat. Onc., 3: 204-217, 2010), were tested for their protective effects against lung colonization by B16F10-Nex2 melanoma cells (2×105) injected intravenously in C57B1/6 mice (6 animals/group). Peptides were intraperitoneally administered (250 μg i.p.) on days 1, 3, 5, 7, 9, 11 after tumor cell challenge. Lungs of peptide-treated animals are shown in FIG. 5 after 22 days of tumor challenge. As noticed, peptide treatment was interrupted 10 days before animal sacrifice.
In vivo protection by peptides RB9 and RB10 (and A4H3 control) against lung colonization by B16F10-Nex2 melanoma cells (2×105) injected intravenously in C57B1/6 mice (6 animals/group) is shown in FIG. 6. The other 5 CDRs of RebMab200 (SEQ ID NOs: 7, 10, 11, 12, 13) were unprotective in vivo. Peptides were administered in the same way as described above, and the number of lung nodules was determined.

HL-60 cells = test: Cell viability, Trypan blue count or MTT assay; assay type: cell-based, human; details: for cytotoxicity to HL-60 cells: cells growing in suspension, Trypan blue / MTT
Procedure: (§1) Viable HL-60 cells (1×10^4)/well were distributed on a 96-well culture plate and incubated for 4 hours with different concentrations of RB9 (SEQ ID NO: 8) ranging from 0 to 1 mM for 24 hours. Cell viability was directly measured by counting in a Neubauer chamber with Trypan blue or estimated by the colorimetric MTT assay.

HCT cells = test: Detection of peptide-treated hyper adherent cells (MTT after trypsin-EDTA); assay type: cell-based, human; details: 500 μM peptide, 24 hours
Procedure: (§2) Viable SiHa cells (1×10^4)/well were distributed on a 96-well culture plate and incubated for 4 hours at 37° C. in a humidified chamber with 5% CO2. Fresh medium containing different peptide concentrations of RB9 (SEQ ID NO: 8) and RB10 (SEQ ID NO: 9) ranging from 0 to 1 mM (i.e., 0, 0.25, 0.5 and 1 mM) was added to the wells and incubated for 24 hours. The medium was then aspirated; cells were detached with 30 μl/well of trypsin-EDTA for five minutes at 37° C. and gently washed with PBS. Hyper-adherent cells were incubated for 4 hours with 0.5 mg/mL of MTT [3-(4,5-dimethylthiazol-2-yl)-2,5-diphenyltetrazolium bromide] in fresh medium and formazan crystals were solubilized adding 1 volume of 10% SDS solution overnight. Intensity was measured using a plate reader at 570 nm.
Viable HCT cells (1×10^4)/well were distributed on a 96-well culture plate and incubated for 4 hours, following the same protocol of Example 5.

[2] = tested on: human cervix cancer SiHa cells; test: Cell migration, wound healing assay; assay type: cell-based; details: peptide 500 μM, 24 hours
Procedure: (§3) For the migration studies, 5×10^5 or 10^6 cells were distributed on 6-well plates and let them to adhere for 2 hours at 37° C./5% CO2. The culture medium was changed and the peptide was added at 500 μM overnight. The cell monolayer was “wounded” with a P1000 tip and incubated for 24 hours. Images of untreated cells (control) and peptide treated cells were captured with a JENOPTIK camera. Cell numbers (nuclei) were determined using the Pixcavator software version 5.0.

[3] = tested on: human glioblastoma U87 cells; test: Cell migration, wound healing assay; assay type: cell-based; details: peptide 500 μM, 24 hours
Procedure: as §3

[4] = tested on: A2058 human melanoma cells; test: Cell adherence, trypsin-EDTA detachment, Trypan blue count; assay type: cell-based; details: 24 hours; FIGS. 2A-2D (SKBR3 and A2058), cell line not given; read-out: peptide concentration at which 50% of cells were trypsin-EDTA resistant
Procedure: SKBR3 cells (1×10^4) were cultivated in 96-well plates and incubated with RB9 (SEQ ID NO: 8) and RB10 (SEQ ID NO: 9). After 18 hours incubation, viable cells detached with trypsin/EDTA were counted using Trypan blue exclusion staining. Assays were performed in triplicate in two independent experiments. The A2058 human melanoma cells (1×10^4) were incubated for 4 hours at 37° C. in a humidified chamber with 5% CO2. Fresh media containing different peptide concentrations of RB9 and RB10 ranging from 0 to 1 mM (i.e., 0, 0.25, 0.5 and 1 mM) was added to the wells and incubated for 24 hours. The media was then aspirated, cells were detached with 30 μl/well of trypsin-EDTA for five minutes at 37° C. and viable cells were counted in a Neubauer chamber using Trypan blue. As shown in FIGS. 2A-2D, 50% of cells were trypsin-EDTA resistant at 630 and 610 μM RB9 and RB10, respectively.

[5] = tested on: B16F10-Nex2 melanoma cells; test: Cell migration, wound healing assay; assay type: cell-based, murine; details: for inhibition of cell migration (words): peptide 500 μM, 24 hours after wounding
Procedure: as §3
Viable B16F10-Nex2 cells (5×105)/well were distributed on a 6-well culture plate and incubated overnight at 37° C. in a humidified chamber with 5% CO2. A P1000 tip was used for wounding the cell monolayer and the image was immediately captured (0 hour) using a camera (Jenoptik) with the software Progres 2.8. After 24 hours a new image of the same field was obtained and recorded (24 hours).
Viable B16F10-Nex2 cells (3×10^5)/well were distributed in a 12-well culture plate and incubated for 4 hours at 37° C. in a humidified chamber with 5% CO2. Fresh medium containing RB10 (SEQ ID NO: 9) at different concentrations was added to the wells and incubated again for 4 hours. The monolayer wounding was performed as described above in Example 12, and images obtained accordingly. After 24 hours a new image in the same field was obtained and recorded (24 hours). […] Magnification ×100.

OVCAR-3 cells = test: Effect on ovarian carcinoma cells (trypsin-EDTA detachment, Trypan blue or MTT); assay type: cell-based, human; details: for cytotoxicity / activity against OVCAR-3 cells: 0 to 1 mM, 24 hours, Trypan blue / MTT; for hyper-adherent effect (detachment with trypsin/EDTA): up to 1 mM peptide
Procedure: as §1, with “OVCAR-3” for “HL-60”, “Cells were detached with 30 μl/well of trypsin-EDTA for five minutes at 37° C. and counted” for “Cell viability was directly measured by counting”

SiHa cells = test: Detection of peptide-treated hyper adherent cells (MTT after trypsin-EDTA); assay type: cell-based, human; details: 500 μM peptide, 24 hours
Procedure: as §2

Compound: C[C@@H]1NC(=O)[C@H](CCCNC(=N)N)NC(=O)[C@H](C)NC(=O)[C@H]([C@@H](C)O)NC(=O)[C@H](CCC(=O)O)NC(=O)CNC(=O)[C@H](CCCNC(=N)N)NC(=O)[C@H](C)NC(=O)[C@@H](N)CSSC[C@@H](C(N)=O)NC(=O)CNC(=O)[C@H](CCC(N)=O)NC(=O)CNC(=O)[C@H](Cc2c[nH]c3ccccc23)NC(=O)[C@H](Cc2ccc(O)cc2)NC(=O)[C@H](C)NC(=O)[C@H](Cc2ccccc2)NC(=O)[C@H]([C@@H](C)O)NC1=O [RB9, CARGETARATFAYWGQGC-NH2]
protection against lung colonization (lung nodules) [1]: successfully protected; also recorded: reduced | EC50 (HL-60 cells; 24 hours, Trypan blue and MTT, read-out: concentration reducing cell viability by 50% (ED50)): 920 to 930 µM | cytotoxicity to HL-60 cells (HL-60 cells): mildly cytotoxic; also recorded: mild cytotoxicity | cells resistant to trypsinization (HCT cells): 80% | inhibition of cell migration [2]: no effect; also recorded: non-inhibition | inhibition of cell migration [3]: poorly; also recorded: partial inhibition | EC50 [4]: 630 µM | inhibition of cell migration (words) [5]: Total inhibition; also recorded: complete inhibition | cytotoxicity / activity against OVCAR-3 cells (OVCAR-3 cells): inactive; also recorded: no significant decrease in viability; also recorded: lack of cytotoxicity | hyper-adherent effect (detachment with trypsin/EDTA) (OVCAR-3 cells): normally detached; also recorded: most cells were unaffected | tumor cells resistant to trypsinization (SiHa cells): 30%

EC50 [4]: 610 µM
Compound: CARGETARATFAYWGQG-NH2 [RB10, CARGETARATFAYWGQG-NH2]
protection against lung colonization (lung nodules) [1]: successfully protected; also recorded: protective; also recorded: reduced | cytotoxicity to HL-60 cells (HL-60 cells): mildly cytotoxic | cells resistant to trypsinization (HCT cells): 80% | inhibition of cell migration [2]: complete or almost complete inhibition | inhibition of cell migration [3]: partial migration inhibition | inhibition of cell migration ([5]; 30 μM, 24 hours): more than 30% | inhibition of cell migration ([5]; 500 μM, 24 hours): 100% | migration inhibition, dose dependence ([5]; different concentrations, 24 hours): dose-dependent inhibition | inhibition of cell migration (words) [5]: Total inhibition; also recorded: inhibited; also recorded: complete inhibition | cytotoxicity / activity against OVCAR-3 cells (OVCAR-3 cells): inactive | hyper-adherent effect (detachment with trypsin/EDTA) (OVCAR-3 cells): normally detached | tumor cells resistant to trypsinization (SiHa cells): 80%
